Data: US7060733B2, “Methods for treating pancreatitis with curcumin compounds and inhibitors of reactive oxygen species” (The Regents of the University of California, priority 2002, dated 2006)
“Also recorded” adds a separate entry of the source.

Columns and labels:
trypsin = test: Trypsin activation assay in pancreatic tissue homogenates; format: in vivo, rat; conditions: for inhibition of intrapancreatic trypsin activation / active trypsin versus pancreatitis without curcumin: rat
Method: Pancreatic tissue homogenates were prepared by methods known in the art. See Gukovskaya A S, et al. (2002); Gukovsky I, et al. (1998); Sandoval D, et al. (1996) Gastroenterology 111:1081–1091; and Vaquero E, et al. (2001), which are herein incorporated by reference. Active trypsin was measured in the pancreatic tissue homogenates by using a specific substrate, Boc-GLn-Ala-Arg-A MC (Bachem, Torrance, Calif.). See Kawabata S. et al. (1988) Eur. J. Biochem. 172:17–25, which is herein incorporated by reference. Cleavage of the substrate by trypsin releases 7-amino-4-methylcoumarin (AMC), which emits fluorescence at 440 nm with excitation at 380 nm. Trypsin activity in each sample was determined using a standard curve for purified trypsin.
Specifically, about ⅓ of rat pancreas was homogenized in 2 ml ice-cold buffer A (5 mM MES, pH 6.5; 1 mM MgSO4, 250 mM sucrose). Then 2 ml of buffer B (50 mM Tris, pH 8.0; 150 mM NaCl, 1 mM CaCl2, 0.1 mg/ml BSA) was mixed with 25 μl of the homogenate and kept on ice. Then 2 μl of 20 mM substrate solution (20 mM Boc-Gln-Ala-Arg-AMC.HCl in DMSO) was added to start the reaction. The sample was mixed well and incubated at 37° C. The reaction product was measured with a spectrofluorimeter for 20 minutes at ex=380 nm; em=440 nm.

NF-κB = test: CCK-induced NF-κB activation in isolated pancreatic acinar cells (EMSA); format: cell-based, rat
Method: To confirm that the effects of curcumin occur in the pancreatic acinar cell, the effects of curcumin on the activation of NF-κB and AP-1 in vitro in CCK-stimulated pancreatic acini. Pancreatic acini were prepared from rat pancreas using the collagenase digestion method as described by Pandol S J, et al. (1982) J. Biol. Chem. 257:12024–12029, which is herein incorporated by reference, and then incubated at 37° C. in 199 medium (GIBCO, Rockville, Md.) known in the art. See Blinman T A, et al. (2000); Gukovskaya A S, et al. (1997); Gulkovsky I, et al. (1998); and Zaninovic V, et al. (2000).
EMSAs for NF-κB and AP-1 were performed on nuclear proteins extracted from each sample as provided above.
Nuclear protein extracts were prepared by methods known in the art. See Blinman T A, et al. (2000); Gukovskaya A S, et al. (1997); Gukovsky I, et al. (1998); Pandol S J, et al. (1999); Vaquero E, et al. (2001); and Zaninovic V, et al. (2000). Briefly, samples of pancreatic tissue or isolated acini were rinsed in ice-cold PBS and homogenized in hypotonic Buffer A (20 mM β-glycerophosphate, 10 mM HEPES, pH 7.6, 1.5 mM MgCl2, 10 mM KCl, 10 mM Na2MoO4, 0.1 mM Na3VO4, 1 mM dithiothreitol (DTT), 1 mM phenylmethylsulfonyl fluoride (PMSF), 5 μg/ml each of protease inhibitors pepstatin, leupeptin, chymostatin, antipain and aprotinin). […]

## COc1cc(/C=C/C(=O)CC(=O)/C=C/c2ccc(O)c(OC)c2)ccc1O [curcumin]
trypsin; EtOH+CCK model
  inhibition of intrapancreatic trypsin activation: greater than 50%
trypsin; cerulein model
  inhibition of intrapancreatic trypsin activation: greater than 70%
trypsin; cerulein pancreatitis
  active trypsin versus pancreatitis without curcumin: significantly lower; also recorded: significantly inhibited
trypsin; ethanol-fed rats, EtOH+CCK model, basal
  basal level of active pancreatic trypsin: unaffected
trypsin; ethanol/CCK pancreatitis
  active trypsin versus pancreatitis without curcumin: significantly lower; also recorded: significantly inhibited
NF-κB; 1 h with compound, then 0.1 μM CCK 30 min
  CCK-induced activation of NF-κB in isolated acinar cells: inhibits; also recorded: abolished; also recorded: blocked; also recorded: attenuates; also recorded: not highly potent
NF-κB; control cells, incubated without CCK
  basal NF-κB binding activity in acinar cells: inhibited
